The values below come from EP2951180B1, “2,6,7,8 SUBSTITUTED PURINES AS HDM2 INHIBITORS” (Merck Sharp & Dohme Corp., priority 2013, dated 2014).

pIC50: −log10 of the molar value.

As usually defined, the pIC50 is the IC50 on a negative log10 scale, so that one unit is a factor of ten. Read a low pIC50 as a high IC50.

One assay deals with T1, HDM2 (Homo sapiens, UniProt Q00987).
T1 construct: Thioredoxin (N); made in house; host or cells: E. coli strain BL21(DE3)Rosetta
T1 sequence (Q00987 17-125): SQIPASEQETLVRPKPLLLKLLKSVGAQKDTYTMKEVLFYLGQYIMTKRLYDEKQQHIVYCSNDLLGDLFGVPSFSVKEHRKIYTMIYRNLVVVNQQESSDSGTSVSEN
Nature of the assay: FRET assay (HDM2 inhibition; method not described in this part). The following applies: Table 1. In kind it is binding.
For `C[C@@H](Nc1nc(C(=O)O)nc2nc(-c3ccc4c(ccn4C)c3)n(Cc3ccc(C(F)(F)F)cc3)c12)C1CCC1` [Example 1.108, 6-{[(1R)-1-cyclobutylethyl]amino}-8-(1-methyl-1H-indol-5-yl)-7-[4-(trifluoromethyl)benzyl]-7H-purine-2-carboxylic acid], the negative logarithm of the IC50 (pIC50) was 7.22.

With `C[C@@H](Nc1nc(C(=O)O)nc2nc(-c3ccc(OC(F)F)cn3)n(Cc3ccc(C(F)(F)F)cc3)c12)C1CCC1` [Example 1.66, 6-{[(1R)-1-cyclobutylethyl]amino}-8-[5-(difluoromethoxy)pyridin-2-yl]-7-[4-(trifluoromethyl)benzyl]-7H-purine-2-carboxylic acid], the pIC50 is 7.23.

`COc1ccnc(-c2nc3nc(C(=O)O)nc(N[C@H](C)C4CCC4)c3n2Cc2ccc(C(F)(F)F)cc2)c1` [Example 1.67, 6-{[(1R)-1-cyclobutylethyl]amino}-8-(4-methoxypyridin-2-yl)-7-[4-(trifluoromethyl)benzyl]-7H-purine-2-carboxylic acid] showed a pIC50 of 7.85.

`Cc1cc(-c2nc3nc(C(=O)O)nc(N[C@H](C)C4CCC4)c3n2Cc2ccc(C(F)(F)F)cc2)n(C)n1` [Example 1.94, 6-{[(1R)-1-cyclobutylethyl]amino}-8-(1,3-dimethyl-1H-pyrazol-5-yl)-7-[4-(trifluoromethyl)benzyl]-7H-purine-2-carboxylic acid]: the negative logarithm of the IC50 (pIC50) was 6.76.

Consider `CC(C)c1ccc(O)c(-c2nc3nc(C(=O)O)nc(N[C@H](C)C4CCC4)c3n2Cc2ccc(C(F)(F)F)cc2)c1` [Example 1.11, (R)-6-((1-cyclobutylethyl)amino)-8-(2-hydroxy-5-isopropylphenyl)-7-(4-(trifluoromethyl)benzyl)-7H-purine-2-carboxylic acid], for which the pIC50 was 7.30.

Staying with this assay, now noted: Table 2.
`C[C@@H](Nc1nc(C(=O)O)nc2nc(Cc3ccccc3)n(Cc3ccc(C(F)(F)F)cc3)c12)C1CCC1` [Example 2.3, (R)-8-benzyl-6-((1-cyclobutylethyl)amino)-7-(4-(trifluoromethyl)benzyl)-7H-purine-2-carboxylic acid] gave a pIC50 of 8.44.

Regarding `C[C@@H](Nc1nc(C(=O)O)nc2nc(-c3ccc(Cl)c(Cl)c3)n(Cc3ccc(C(F)(F)F)cc3)c12)C1CCC1` [Example 2.76, 6-{[(1R)-1-cyclobutylethyl]amino}-8-(3,4-dichlorophenyl)-7-[4-(trifluoromethyl)benzyl]-7H-purine-2-carboxylic acid], the negative logarithm of the IC50 (pIC50) is 7.69.

With `CCOc1cccc(-c2nc3nc(C(=O)O)nc(N[C@H](C)C4CCC4)c3n2Cc2ccc(C(F)(F)F)cc2)c1` [Example 2.17, 6-{[(1R)-1-cyclobutylethyl]amino}-8-(3-ethoxyphenyl)-7-[4-(trifluoromethyl)benzyl] -7H-purine-2-carboxylic acid], the pIC50 was 7.40.

`CCc1ccc(C)cc1-c1nc2nc(C(=O)O)nc(N[C@H](C)C3CCC3)c2n1Cc1ccc(C(F)(F)F)cc1` [Example 2.82, 6-{[(1R)-1-cyclobutylethyl]amino}-8-(2-ethyl-5-methylphenyl)-7-[4-(trifluoromethyl)benzyl]-7H-purine-2-carboxylic acid] had a pIC50 of 7.86.

In turn, `C[C@@H](Nc1nc(C(=O)O)nc2nc(-c3ccccc3OC(F)(F)F)n(Cc3ccc(C(F)(F)F)cc3)c12)C1CC1` [Example 2.34, 6-{[(1R)-1-cyclopropylethyl]amino}-8-[2-(trifluoromethoxy)phenyl]-7-[4-(trifluoromethyl)benzyl]-7H-purine-2-carboxylic acid] had a pIC50 of 7.68.

The same assay, now with this note: Table 4.
With `COCCOc1ccc(C)cc1-c1nc2nc(C(=O)O)nc(N[C@H](C)C3CCC3)c2n1Cc1ccc(Cl)cc1` [Example 4.8, (R)-7-(4-chlorobenzyl)-6-((1-cyclobutylethyl)amino)-8-(2-(2-methoxyethoxy)-5-methylphenyl)-7H-purine-2-carboxylic acid], the negative-log IC50 (pIC50) is 7.26.
